Data from patent publication US11666558B2, “Methods of treating intraocular pressure with activators of Tie-2” (EyePoint Pharmaceuticals, Inc., priority 2015, dated 2023).
“Also recorded” adds a separate entry of the source. Where a name gives a salt, the structure may show the parent alone.

Test: General health observations after repeated dosing
Format: in vivo, New Zealand White rabbits
Settings: repeated topical (0.45 or 1.2 mg/eye) and subcutaneous (10 mg/kg) dosing over 7 days
Description: Animals were observed within their cages once daily throughout the study period. […] General health observations were recorded daily beginning on Day 1 and continuing throughout the course of the study.

## COC(=O)N[C@@H](Cc1ccccc1)C(=O)N[C@@H](Cc1ccc(NS(=O)(=O)O)cc1)c1csc(-c2cccs2)n1 [Compound 1 sodium salt]
  general health: normal health and activity; also recorded: No adverse effects
